In ChEMBL document CHEMBL5352447, “Development of [1,2]oxazoloisoindoles tubulin polymerization inhibitors: Further chemical modifications and potential therapeutic effects against lymphomas” (Eur J Med Chem, 2022):
Active and inactive are the calls of the source. The calls are words filed in the database; no cut-off is given here.

Columns and labels:
MCF7 = assay: Cytotoxicity against human MCF7 cells assessed as cell growth inhibition; type: functional, cell-based
SU-DHL10 [1] = assay: Antiproliferative activity against human SU-DHL-10 cells assessed as inhibition of cell proliferation incubated for 72 hrs by MTT assay; type: functional, cell-based; settings: SU-DHL10, 72 h
[2] = Antiproliferative activity against human HBL1 cells assessed as inhibition of cell proliferation incubated for 72 hrs by MTT assay; type: functional, cell-based; settings: HBL1, 72 h
VL51 [3] = assay: Antiproliferative activity against human VL51 cells assessed as inhibition of cell proliferation incubated for 72 hrs by MTT assay; type: functional, cell-based; settings: VL51, 72 h
[4] = Antiproliferative activity against human HBL1 cells assessed as proliferating cells at 1 uM incubated for 72 hrs by MTT assay relative to control; type: functional
Tubulin (Homo sapiens) = Tubulin (Homo sapiens) (UniProt P68371+Q9H4B7+P0DPH7+P68366+Q13509+Q71U36+P04350+Q3ZCM7+P07437+P68363+Q9BQE3+Q6PEY2+Q13885+Q9BVA1+Q9BUF5); assay: Inhibition of [3H]Colchicine binding to tubulin (unknown origin) at 5 uM relative to control; type: protein-complex assay
[5] = Antiproliferative activity against human MINO cells assessed as proliferating cells at 1 uM incubated for 72 hrs by MTT assay relative to control; type: functional
[6] = Antiproliferative activity against human MINO cells assessed as inhibition of cell proliferation incubated for 72 hrs by MTT assay; type: functional, cell-based
Tubulin = assay: Inhibition of tubulin assembly (unknown origin); type: protein-complex assay, Homo sapiens
VL51 [7] = assay: Antiproliferative activity against human VL51 cells assessed as proliferating cells at 1 uM incubated for 72 hrs by MTT assay relative to control; type: functional
SU-DHL10 [8] = assay: Antiproliferative activity against human SU-DHL-10 cells assessed as proliferating cells at 1 uM incubated for 72 hrs by MTT assay relative to control; type: functional
VL51 [9] = assay: Induction of cell cycle arrest in human VL51 cells assessed as accumulation at subG0 phase at early time point at 50 to 500 nM incubated upto 72 hrs by […]; type: functional; settings: dose 50-500 nM
VL51 [10] = assay: Induction of cell cycle arrest in human VL51 cells assessed as accumulation at G2/M phase at 50 nM incubated for 24 to 72 hrs by […]; type: functional; settings: time 24-72 hrs
PBMC = assay: Induction of apoptosis in human PBMC cells at 500 nM incubated for 24 to 48 hrs by annexin V staining based analysis relative to control; type: toxicity, cell-based; settings: 0.5 µM, time 24-48 hrs
MINO [11] = assay: Induction of cell cycle arrest in human MINO cells assessed as accumulation at subG0 phase at early time point at 50 to 500 nM incubated upto 72 hrs by […]; type: functional; settings: dose 50-500 nM
VL51 [12] = assay: Induction of apoptosis in human VL51 cells at 50 to 500 nM incubated for 24 to 72 hrs by annexin V-FITC/PI staining based analysis; type: functional, cell-based; settings: dose 50-500 nM, time 24-72 hrs
MINO [13] = assay: Induction of cell cycle arrest in human MINO cells assessed as accumulation at G2/M phase at 50 nM incubated for 24 to 72 hrs by […]; type: functional; settings: time 24-72 hrs
MINO [14] = assay: Induction of apoptosis in human MINO cells at 50 to 500 nM incubated for 24 to 72 hrs by annexin V-FITC/PI staining based analysis; type: functional, cell-based; settings: dose 50-500 nM, time 24-72 hrs
MINO [15] = assay: Upregulation of CENPA in human MINO cells at 100 nM incubated for 8 to 24 hrs by RNA sequencing analysis; type: functional, cell-based; settings: time 8-24 hrs
MINO [16] = assay: Upregulation of CCNB2 in human MINO cells at 100 nM incubated for 8 to 24 hrs by RNA sequencing analysis; type: functional, cell-based; settings: time 8-24 hrs
MINO [17] = assay: Upregulation of CENPE in human MINO cells at 100 nM incubated for 8 to 24 hrs by RNA sequencing analysis; type: functional, cell-based; settings: time 8-24 hrs
MINO [18] = assay: Upregulation of CCNB1 in human MINO cells at 100 nM incubated for 8 to 24 hrs by RNA sequencing analysis; type: functional, cell-based; settings: time 8-24 hrs
MINO [19] = assay: Upregulation of PLK1 in human MINO cells at 100 nM incubated for 8 to 24 hrs by RNA sequencing analysis; type: functional, cell-based; settings: time 8-24 hrs
MINO [20] = assay: Upregulation of AURKA in human MINO cells at 100 nM incubated for 8 to 24 hrs by RNA sequencing analysis; type: functional, cell-based; settings: time 8-24 hrs
MINO [21] = assay: Upregulation of BIRC5 in human MINO cells at 100 nM incubated for 8 to 24 hrs by RNA sequencing analysis; type: functional, cell-based; settings: time 8-24 hrs

IC50 (SU-DHL10 [1]) | inhibition (Tubulin (Homo sapiens)) | IC50 (Tubulin) | SMILES | IC50 (MCF7) | IC50 [2] | IC50 (VL51 [3]) | Activity [4] | Activity [5] | IC50 [6] | Activity (VL51 [7]) | Activity (SU-DHL10 [8]) | also measured
0.1 µM | 57% | 1.7 µM | COc1ccc(Cn2cc3c(c2-c2cc(OC)c(OC)c(OC)c2)CCc2cnoc2-3)cc1N | 0.24 µM | 0.09 µM | 0.1 µM | 12.9% | 9.31% | 0.07 µM | 34.7% | 12% | –
0.07 µM | 80% | 2.3 µM | COc1cc(Cn2cc3c(c2)-c2oncc2CC3)cc(OC)c1OC | 0.21 µM | 0.08 µM | 0.12 µM | 7.3% | 8.6% | 0.07 µM | 28.1% | 13.8% | Activity (VL51 [9]): Active; Activity (VL51 [10]): Active; Activity (PBMC): 15%; Activity (MINO [11]): Active; Activity (VL51 [12]): Active; Activity (MINO [13]): Active; Activity (MINO [14]): Active
– | – | – | COc1ccc(/C=C\c2cc(OC)c(OC)c(OC)c2)cc1O [COMBRETASTATIN A4] | 0.018 µM | – | – | – | – | – | – | – | –
– | 34% | 3.4 µM | COc1ccc(Cn2cc3c(c2-c2ccccc2)CCc2cnoc2-3)cc1OC | 4.5 µM | – | – | – | – | – | – | – | –
0.26 µM | 72% | 1.7 µM | COc1ccc(Cn2cc3c(c2-c2ccccc2)CCc2cnoc2-3)cc1N | 0.37 µM | 0.27 µM | 0.25 µM | 27.6% | 10.5% | 0.23 µM | 37.6% | 13% | –
0.8 µM | 69% | 5.2 µM | COc1cccc(Cn2cc3c(c2)-c2oncc2CC3)c1 | 0.55 µM | 0.7 µM | 1 µM | 37.9% | 8.9% | 0.7 µM | 44.7% | 14% | –
– | – | 12 µM | COc1ccc(Cn2cc3c(c2-c2ccccc2)CCc2c(CN4CCCC4)noc2-3)cc1 | > 5 µM | – | – | – | – | – | – | – | –
– | – | 8 µM | CCOC(=O)c1c2c(cn1Cc1ccc(OC)cc1)-c1oncc1CC2 | > 5 µM | – | – | – | – | – | – | – | –
0.03 µM | 88% | 2.8 µM | COc1cc(Cn2cc3c(c2)-c2oncc2CC3)cc(OC)c1 | 0.29 µM | 0.02 µM | 0.04 µM | 7.1% | 0.8% | 0.02 µM | 38% | 30.5% | Activity (MINO [15]): Active; Activity (VL51 [9]): Active; Activity (VL51 [10]): Active; Activity (PBMC): 15%; Activity (MINO [16]): Active; Activity (MINO [11]): Active; Activity (VL51 [12]): Active; Activity (MINO [13]): Active; Activity (MINO [17]): Active; Activity (MINO [18]): Active; Activity (MINO [19]): Active; Activity (MINO [14]): Active; Activity (MINO [20]): Active; Activity (MINO [21]): Active
– | 55% | 1.5 µM | COc1ccc(Cn2cc3c(c2-c2ccccc2)CCc2cnoc2-3)cc1[N+](=O)[O-] | 0.34 µM | – | – | – | – | – | – | – | –
0.5 µM | 34% | 3.2 µM | COc1ccc(Cn2cc3c(c2-c2cc(OC)c(OC)c(OC)c2)CCc2cnoc2-3)cc1 | 0.6 µM | 0.47 µM | 0.27 µM | 30.7% | 8.7% | 0.37 µM | 37.9% | 12.7% | –
– | 21% | 4.6 µM | c1ccc(Cn2cc3c(c2-c2ccccc2)CCc2cnoc2-3)cc1 | > 5 µM | – | – | – | – | – | – | – | –
0.28 µM | 77% | 2.1 µM | COc1ccc(Cn2cc3c(c2-c2ccccc2)CCc2cnoc2-3)cc1 | 0.38 µM | 0.25 µM | 0.27 µM | 21.5% | 8.4% | 0.23 µM | 40.9% | 13% | –
1.7 µM | 55% | 2 µM | COc1ccc(Cn2cc3c(c2-c2ccc(OC)cc2)CCc2cnoc2-3)cc1 | > 5 µM | 1.2 µM | 1.1 µM | 57.1% | 29.9% | 1.1 µM | 49.4% | 47.4% | –
